Reference: patent US20100298141A1, “SUBSTITUTED PYRIDINE N-OXIDE HERBICIDES” (E. I. DU PONT DE NEMOURS AND COMPANY, priority 2007, published 2010)

How the values were obtained:
Russian thistle = experiment: Test C pre-/postemergence test; assay type: in vivo, Salsola kali; conditions: for Plant response rating, Russian Thistle: scale 0 to 100 (0 no effect, 100 complete control)
Description: Seeds of plant species selected from blackgrass (Alopecurus myosuroides), downy brome (Bromus tectorum), green foxtail (Setaria viridis), Italian ryegrass (Lolium multiflorum), wheat (Triticum aestivum), wild oat (Avena fatua), catchweed bedstraw (Galium aparine), Russian thistle (Salsola kali), […] (Cynodon dactylon), Surinam grass (Brachiaria decumbens), cocklebur (Xanthium strumarium), corn (Zea mays), crabgrass (Digitaria sanguinalis), woolly cupgrass (Eriochloa villosa), giant foxtail (Setaria faberii), Goosegrass (Eleusin indica), johnsongrass (Sorghum halepense), kochia (Kochia scoparia), lambsquarters (Chenopodium album), morningglory (Ipomoea coccinea), eastern black nightshade (Solanum ptycanthum), yellow nutsedge (Cyperus esculentus), pigweed (Amaranthus retroflexus), common ragweed (Ambrosia elation), soybean (Glycine max), common (oilseed) sunflower (Helianthus annuus), and velvetleaf (Abutilon theophrasti) were planted and treated preemergence with test chemicals formulated in a non-phytotoxic solvent mixture which included a surfactant. At the same time, plants selected from these crop and weed species and also winter barley (Hordeum vulgare), canarygrass (Phalaris minor), and chickweed (Stellaria media) were treated with postemergence applications of some of the test chemicals formulated in the same manner. Plants ranged in height from 2 to 18 cm (1- to 4-leaf stage) for postemergence treatments. […] At time of treatment, test pots were flooded to 3 cm above the soil surface, treated by application of test compounds directly to the paddy water, and then maintained at that water depth for the duration of the test. […] A dash (-) response means no test result.

pitted morningglory = experiment: Test F preemergence test; assay type: in vivo, Ipomoea lacunosa; conditions: scale 0 to 100
In short: (§1)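 Test chemicals in a non-phytotoxic solvent mixture containing a surfactant were applied preemergence to sown seeds or postemergence to sugarcane plants. Treated plants and controls were held in a greenhouse for 14 to 21 days, then visually evaluated against controls.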

southern sandbur = experiment: Test F preemergence test; assay type: in vivo, Cenchrus echinatus; conditions: scale 0 to 100
In short: as §1

Surinam grass = experiment: Test F preemergence test; assay type: in vivo, Brachiaria decumbens; conditions: scale 0 to 100
In short: as §1

bermudagrass = experiment: Test F preemergence test; assay type: in vivo, Cynodon dactylon; conditions: scale 0 to 100
In short: as §1

guineagrass = experiment: Test F preemergence test; assay type: in vivo, Panicum maximum; conditions: scale 0 to 100
In short: as §1

large crabgrass = experiment: Test F preemergence test; assay type: in vivo, Digitaria sanguinalis; conditions: scale 0 to 100
In short: as §1

kochia = experiment: Test F preemergence test; assay type: in vivo, Kochia scoparia; conditions: scale 0 to 100
In short: as §1

quackgrass = experiment: Test F preemergence test; assay type: in vivo, Elytrigia repens; conditions: scale 0 to 100
In short: as §1

naked crabgrass = experiment: Test F preemergence test; assay type: in vivo, Digitaria nuda; conditions: scale 0 to 100
In short: as §1

goosegrass = experiment: Test F preemergence test; assay type: in vivo, Eleusine indica; conditions: scale 0 to 100
In short: as §1

johnsongrass = experiment: Test F preemergence test; assay type: in vivo, Sorghum halepense; conditions: scale 0 to 100
In short: as §1

purple nutsedge = experiment: Test F preemergence test; assay type: in vivo, Cyperus rotundus; conditions: scale 0 to 100
In short: as §1

Italian ryegrass = experiment: Test F preemergence test; assay type: in vivo, Lolium multiflorum; conditions: scale 0 to 100
In short: as §1

common ragweed = experiment: Test F preemergence test; assay type: in vivo, Ambrosia elation; conditions: scale 0 to 100
In short: as §1

prickly sida = experiment: Test F preemergence test; assay type: in vivo, Sida spinosa; conditions: scale 0 to 100
In short: as §1

common purslane = experiment: Test F preemergence test; assay type: in vivo, Portulaca oleracea; conditions: scale 0 to 100
In short: as §1

[1] = preemergence, 250 g ai/ha, scale 0 (no effect) to 100 (complete control)
[2] = 62 g ai/ha, Preemergence, scale 0 to 100
[3] = 125 g ai/ha, preemergence, scale 0 (no effect) to 100 (complete control)

## Cn1nc(C(F)(F)F)c(C(Cl)S(=O)(=O)c2cccc[n+]2[O-])c1OCC(F)(F)F (racemic) [Compound 36]
Russian thistle; Preemergence, 31 g ai/ha
  Plant response rating, Russian Thistle: 0
Russian thistle; [1]
  Russian Thistle plant response rating: 60

## Cc1cc[n+]([O-])c(S(=O)(=O)Cc2c(C(F)(F)C(F)(F)F)nn(C)c2OCC(F)(F)F)c1 [Compound 99]
Russian thistle; [2]
  Russian Thistle plant response rating: 100
Russian thistle; [3]
  Russian Thistle plant response rating: 100
Russian thistle; Preemergence, 31 g ai/ha
  Plant response rating, Russian Thistle: 100
Russian thistle; [1]
  Russian Thistle plant response rating: 100

## CCc1cc[n+]([O-])c([S+]([O-])Cc2c(C(F)(F)F)nn(C)c2OC(F)F)c1 (stereo not shown) [Compound 101]
Russian thistle; [2]
  Russian Thistle plant response rating: 100
Russian thistle; [3]
  Russian Thistle plant response rating: 100
Russian thistle; Preemergence, 31 g ai/ha
  Plant response rating, Russian Thistle: 100
Russian thistle; [1]
  Russian Thistle plant response rating: 100

## Cn1nc(C(F)(F)F)c(C[S+]([O-])c2cc(C(F)(F)F)cc[n+]2[O-])c1Cl (racemic) [Compound 34]
Russian thistle; [2]
  Russian Thistle plant response rating: 100
Russian thistle; Preemergence, 31 g ai/ha
  Plant response rating, Russian Thistle: 70

## CC(c1c(C(F)(F)F)nn(C)c1OC(F)F)S(=O)(=O)c1cc(C(C)(C)C)cc[n+]1[O-] (racemic) [Compound 26]
Russian thistle; [2]
  Russian Thistle plant response rating: 50
Russian thistle; Preemergence, 31 g ai/ha
  Plant response rating, Russian Thistle: 0

## Cn1nc(C(F)(F)F)c(C(Cl)S(=O)(=O)c2cccc[n+]2[O-])c1Cl (stereo not shown) [Compound 12]
Russian thistle; 31 g ai/ha, Preemergence, scale 0 to 100
  Russian Thistle plant response rating: 100
Russian thistle; 62 g ai/ha, preemergence, scale 0 (no effect) to 100 (complete control)
  Russian Thistle plant response rating: 100
Russian thistle; Preemergence, 250 g ai/ha
  Plant response rating (0 to 100), Russian Thistle: 100
Russian thistle; preemergence, 125 g ai/ha, scale 0 (no effect) to 100 (complete control)
  Russian Thistle plant response rating: 100

## C#CCOc1c(CS(=O)(=O)c2cccc[n+]2[O-])c(C(F)(F)F)nn1C [Compound 103]
Russian thistle; [2]
  Russian Thistle plant response rating: 100
Russian thistle; [3]
  Russian Thistle plant response rating: 100
Russian thistle; Preemergence, 31 g ai/ha
  Plant response rating, Russian Thistle: 100
Russian thistle; [1]
  Russian Thistle plant response rating: 100

## Cc1cc[n+]([O-])c(S(=O)(=O)Cc2c(C(F)(F)F)nn(C)c2OC(C)C(F)(F)F)c1 (stereo not shown) [Compound 96]
Russian thistle; [2]
  Russian Thistle plant response rating: 50
Russian thistle; [3]
  Russian Thistle plant response rating: 80
Russian thistle; Preemergence, 31 g ai/ha
  Plant response rating, Russian Thistle: 0
Russian thistle; [1]
  Russian Thistle plant response rating: 100

## Cn1nc(C(F)(F)C(F)(F)F)c(C[S+]([O-])c2ccc(Cl)c[n+]2[O-])c1OCC(F)(F)F (stereo not shown) [Compound 92]
Russian thistle; [2]
  Russian Thistle plant response rating: 100
Russian thistle; [3]
  Russian Thistle plant response rating: 100
Russian thistle; Preemergence, 31 g ai/ha
  Plant response rating, Russian Thistle: 100
Russian thistle; [1]
  Russian Thistle plant response rating: 100

## Cn1nc(C(F)(F)F)c(C[S+]([O-])c2cccc[n+]2[O-])c1OCC(F)F (stereo not shown) [Compound 75]
Russian thistle; [2]
  Russian Thistle plant response rating: 100
Russian thistle; [3]
  Russian Thistle plant response rating: 100
Russian thistle; Preemergence, 31 g ai/ha
  Plant response rating, Russian Thistle: 100
Russian thistle; [1]
  Russian Thistle plant response rating: 100

## Cn1nc(C(F)(F)F)c(C[S+]([O-])c2cc(C(C)(C)C)cc[n+]2[O-])c1OC(F)F (racemic) [Compound 24]
Russian thistle; [2]
  Russian Thistle plant response rating: 0

## Cc1cc[n+]([O-])c(S(=O)(=O)C(Cl)c2c(C(F)(F)F)nn(C)c2OCC(F)(F)F)c1 (racemic) [Compound 37]
Pitted morningglory; 16 g ai/ha, preemergence
  Plant response rating, Morningglory: 0
Pitted morningglory; 62 g ai/ha, Preemergence
  Morningglory plant response rating: 0
Pitted morningglory; 125 g ai/ha, preemergence
  Morningglory plant response rating: 35
Pitted morningglory; Preemergence, 31 g ai/ha
  Plant response rating, Morningglory: 0
Southern sandbur; 16 g ai/ha, preemergence
  Plant response rating, Sandbur: 35
Southern sandbur; 125 g ai/ha, preemergence
  Sandbur plant response rating: 90
Southern sandbur; Preemergence, 62 g ai/ha
  Plant response rating, Sandbur: 90
Southern sandbur; Preemergence, 31 g ai/ha
  Plant response rating, Sandbur: 70
Surinam grass; 16 g ai/ha, preemergence
  Plant response rating, Surinam Grass: 0
Surinam grass; 125 g ai/ha, preemergence
  Surinam Grass plant response rating: 90
Surinam grass; Preemergence, 62 g ai/ha
  Plant response rating, Surinam Grass: 60
Surinam grass; Preemergence, 31 g ai/ha
  Plant response rating, Surinam Grass: 60
bermudagrass; 16 g ai/ha, preemergence
  Plant response rating, Bermudagrass: 35
bermudagrass; 62 g ai/ha, Preemergence
  Bermudagrass plant response rating: 65
bermudagrass; 125 g ai/ha, preemergence
  Bermudagrass plant response rating: 75
bermudagrass; Preemergence, 31 g ai/ha
  Plant response rating, Bermudagrass: 35
guineagrass; 16 g ai/ha, preemergence
  Plant response rating, Guineagrass: 65
guineagrass; 62 g ai/ha, Preemergence
  Guineagrass plant response rating: 85
guineagrass; 125 g ai/ha, preemergence
  Guineagrass plant response rating: 100
guineagrass; Preemergence, 31 g ai/ha
  Plant response rating, Guineagrass: 75
Large crabgrass; 16 g ai/ha, preemergence
  Plant response rating, Crabgrass, Large: 0
Large crabgrass; 62 g ai/ha, Preemergence
  Crabgrass, Large plant response rating: 50
Large crabgrass; 125 g ai/ha, preemergence
  Crabgrass, Large plant response rating: 50
Large crabgrass; Preemergence, 31 g ai/ha
  Plant response rating, Crabgrass, Large: 35
Russian thistle; Preemergence, 31 g ai/ha
  Plant response rating, Russian Thistle: 100
Russian thistle; [1]
  Russian Thistle plant response rating: 100
kochia; 16 g ai/ha, preemergence
  Plant response rating, Kochia: 0
kochia; 62 g ai/ha, Preemergence
  Kochia plant response rating: 0
kochia; 125 g ai/ha, preemergence
  Kochia plant response rating: 0
kochia; Preemergence, 31 g ai/ha
  Plant response rating, Kochia: 0
quackgrass; 16 g ai/ha, preemergence
  Plant response rating, Quackgrass: 0
quackgrass; 62 g ai/ha, Preemergence
  Quackgrass plant response rating: 25
quackgrass; 125 g ai/ha, preemergence
  Quackgrass plant response rating: 70
quackgrass; Preemergence, 31 g ai/ha
  Plant response rating, Quackgrass: 25
Naked crabgrass; 16 g ai/ha, preemergence
  Plant response rating, Crabgrass, Naked: 40
Naked crabgrass; 62 g ai/ha, Preemergence
  Crabgrass, Naked plant response rating: 40
Naked crabgrass; 125 g ai/ha, preemergence
  Crabgrass, Naked plant response rating: 100
goosegrass; 16 g ai/ha, preemergence
  Plant response rating, Goosegrass: 65
goosegrass; 62 g ai/ha, Preemergence
  Goosegrass plant response rating: 75
goosegrass; 125 g ai/ha, preemergence
  Goosegrass plant response rating: 98
goosegrass; Preemergence, 31 g ai/ha
  Plant response rating, Goosegrass: 65
johnsongrass; 16 g ai/ha, preemergence
  Plant response rating, Johnsongrass: 30
johnsongrass; 62 g ai/ha, Preemergence
  Johnsongrass plant response rating: 75
johnsongrass; 125 g ai/ha, preemergence
  Johnsongrass plant response rating: 100
johnsongrass; Preemergence, 31 g ai/ha
  Plant response rating, Johnsongrass: 75
Purple nutsedge; 16 g ai/ha, preemergence
  Plant response rating, Purple Nutsedge: 0
Purple nutsedge; 62 g ai/ha, Preemergence
  Purple Nutsedge plant response rating: 0
Purple nutsedge; 125 g ai/ha, preemergence
  Purple Nutsedge plant response rating: 0
Purple nutsedge; Preemergence, 31 g ai/ha
  Plant response rating, Purple Nutsedge: 0
Italian ryegrass; 16 g ai/ha, preemergence
  Plant response rating, Ryegrass, Italian: 20
Italian ryegrass; 125 g ai/ha, preemergence
  Ryegrass, Italian plant response rating: 100
Italian ryegrass; Preemergence, 62 g ai/ha
  Plant response rating, Ryegrass, Italian: 90
Italian ryegrass; Preemergence, 31 g ai/ha
  Plant response rating, Ryegrass, Italian: 75
Common ragweed; 16 g ai/ha, preemergence
  Plant response rating, Ragweed: 0
Common ragweed; 125 g ai/ha, preemergence
  Ragweed plant response rating: 0
Common ragweed; Preemergence, 62 g ai/ha
  Plant response rating, Ragweed: 0
Common ragweed; Preemergence, 31 g ai/ha
  Plant response rating, Ragweed: 0
Prickly sida; 16 g ai/ha, preemergence
  Plant response rating, Prickly Sida: 0
Prickly sida; 62 g ai/ha, Preemergence
  Prickly Sida plant response rating: 35
Prickly sida; 125 g ai/ha, preemergence
  Prickly Sida plant response rating: 90
Prickly sida; Preemergence, 31 g ai/ha
  Plant response rating, Prickly Sida: 15
Common purslane; 16 g ai/ha, preemergence
  Plant response rating, Purslane: 0
Common purslane; 62 g ai/ha, Preemergence
  Purslane plant response rating: 25
Common purslane; 125 g ai/ha, preemergence
  Purslane plant response rating: 50
Common purslane; Preemergence, 31 g ai/ha
  Plant response rating, Purslane: 0

## Cn1nc(C(F)(F)F)c(CS(=O)(=O)c2cc(C(C)(C)C)cc[n+]2[O-])c1OC(F)F [Compound 25]
Russian thistle; [2]
  Russian Thistle plant response rating: 100
Russian thistle; Preemergence, 31 g ai/ha
  Plant response rating, Russian Thistle: 100

## Cn1nc(C(F)(F)F)c(C[S+]([O-])c2ccc(F)c[n+]2[O-])c1Cl (stereo not shown) [Compound 54]
Russian thistle; [2]
  Russian Thistle plant response rating: 30
Russian thistle; [3]
  Russian Thistle plant response rating: 100
Russian thistle; Preemergence, 31 g ai/ha
  Plant response rating, Russian Thistle: 0
Russian thistle; [1]
  Russian Thistle plant response rating: 100
